# Data: patent US20180244611A1, “Modulators of the Cystic Fibrosis Transmembrane Conductance Regulator Protein and Methods of Use” (AbbVie S.à.r.l., priority 2017, published 2018)
# Tests used:
# F508delCFTR [1] = target: T1, F508delCFTR (Homo sapiens, UniProt P13569, DEL508-508); assay: Cell Surface Expression-Horse Radish Peroxidase (CSE-HRP) assay, test compound without co-corrector; format: cell-based; details: for EC50: test compound without co-corrector; for Emax / Maximum % activity (without co-corrector): maximum at any tested concentration, without co-corrector; for Emax: normalized to on-plate positive control; for Maximum % activity (without co-corrector): normalized to positive control;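 as to Maximum % activity (without co-corrector): percent of on-plate 2 µM positive control corrector response over DMSO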
# T1 construct: expressed in transfected cells; host or cells: CFBE41o- human lung-derived epithelial cells (CFBE41o-F508delCFTR-HRP), doxycycline-inducible
# T1 sequence (P13569 with tags, fused parts or gaps DEL508-508): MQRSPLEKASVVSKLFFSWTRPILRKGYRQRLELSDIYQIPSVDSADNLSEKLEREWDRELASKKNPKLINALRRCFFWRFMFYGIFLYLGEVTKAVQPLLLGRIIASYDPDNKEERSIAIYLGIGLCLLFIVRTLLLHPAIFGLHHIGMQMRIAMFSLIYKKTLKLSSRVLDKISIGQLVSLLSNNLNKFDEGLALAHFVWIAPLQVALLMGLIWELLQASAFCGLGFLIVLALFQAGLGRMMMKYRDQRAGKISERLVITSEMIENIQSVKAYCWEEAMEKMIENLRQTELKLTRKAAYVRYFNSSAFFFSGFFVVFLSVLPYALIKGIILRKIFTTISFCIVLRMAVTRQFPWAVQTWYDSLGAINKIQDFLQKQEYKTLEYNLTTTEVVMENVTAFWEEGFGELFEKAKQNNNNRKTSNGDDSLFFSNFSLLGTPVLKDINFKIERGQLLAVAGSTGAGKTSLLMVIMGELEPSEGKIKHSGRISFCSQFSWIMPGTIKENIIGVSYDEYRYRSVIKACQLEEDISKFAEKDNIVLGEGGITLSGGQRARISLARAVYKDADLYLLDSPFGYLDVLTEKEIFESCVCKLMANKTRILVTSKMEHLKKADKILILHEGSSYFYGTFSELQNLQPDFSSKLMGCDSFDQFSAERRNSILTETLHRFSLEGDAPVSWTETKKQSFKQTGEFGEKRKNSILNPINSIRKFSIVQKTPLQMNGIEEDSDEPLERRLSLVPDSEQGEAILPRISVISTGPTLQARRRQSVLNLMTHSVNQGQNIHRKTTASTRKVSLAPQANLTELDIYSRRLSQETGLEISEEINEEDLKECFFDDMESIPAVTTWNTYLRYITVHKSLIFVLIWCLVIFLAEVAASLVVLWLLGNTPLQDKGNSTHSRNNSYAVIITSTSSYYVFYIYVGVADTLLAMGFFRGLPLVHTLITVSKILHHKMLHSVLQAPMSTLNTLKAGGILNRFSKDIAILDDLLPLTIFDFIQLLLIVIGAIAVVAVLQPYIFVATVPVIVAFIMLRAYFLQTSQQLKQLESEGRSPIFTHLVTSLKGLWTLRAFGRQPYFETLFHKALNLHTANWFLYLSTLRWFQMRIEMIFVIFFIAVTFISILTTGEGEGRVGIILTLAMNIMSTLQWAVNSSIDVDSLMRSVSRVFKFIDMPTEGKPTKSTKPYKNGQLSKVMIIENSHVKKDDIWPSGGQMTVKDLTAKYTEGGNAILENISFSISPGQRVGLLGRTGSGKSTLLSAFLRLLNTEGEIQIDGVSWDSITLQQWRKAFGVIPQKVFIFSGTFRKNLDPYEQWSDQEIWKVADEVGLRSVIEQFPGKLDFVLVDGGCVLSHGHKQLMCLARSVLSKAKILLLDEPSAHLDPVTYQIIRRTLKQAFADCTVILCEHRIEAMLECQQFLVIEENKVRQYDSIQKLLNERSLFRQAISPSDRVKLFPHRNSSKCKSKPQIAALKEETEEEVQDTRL
# Summary of the method: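 Compound without co-corrector was tested at eight 3-fold concentrations, top 20 μM, for 18-24 h at 33° C on doxycycline-induced (0.5 μg/mL, 72 h) CFBE41o- F508delCFTR-HRP cells. After DPBS washes, luminol luminescence gave % activity relative to on-plate positive control minus DMSO; EC50 came from triplicate-plate sigmoidal fitting.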
# F508delCFTR [2] = target: T1, F508delCFTR; assay: Cell Surface Expression-Horse Radish Peroxidase (CSE-HRP) assay, test compound with co-corrector; format: cell-based; details: for Maximum % activity (with co-corrector): maximum at any tested concentration;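 as to Maximum % activity (with co-corrector): percent of 2 µM positive control corrector over DMSO; co-corrector is that same compound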
# Summary of the method: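 Surface-expression read-out: luminol luminescence from an HRP tag in the fourth exofacial loop of F508delCFTR, in doxycycline-induced (0.5 μg/mL, 72 h) CFBE41o- cells. Compound plus 2 μM co-corrector added for 18-24 h at 33° C., 8-point 3-fold series up to 20 μM. EC50 from a sigmoidal fit with variable Hill slope, normalised to positive control, triplicate plates.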
# [3] = CSE-HRP assay, test compound with 2 μM co-corrector
# [4] = normalized to on-plate positive control, with 2 μM co-corrector
# [5] = normalized to positive control, with 2 μM co-corrector
EC50 (F508delCFTR [1]; CSE-HRP assay) [µM],Emax (F508delCFTR [1]) [%],EC50 (F508delCFTR [2]; [3]) [µM],Maximum % activity (with co-corrector) (F508delCFTR [2]; [4]),Molecule,Maximum % activity (without co-corrector) (F508delCFTR [1]),EC50 (F508delCFTR [1]) [µM],Maximum % activity (with co-corrector) (F508delCFTR [2]; [5]),EC50 (F508delCFTR [2]; with 2 μM co-corrector) [µM]
3 to 10,< 50,3 to 10,++ (≥150 and <350),O=C(NS(=O)(=O)c1cccc2ccccc12)C1(Cc2ccccn2)CCc2c(Cl)cccc21 (stereo not shown) [III-147],–,–,–,–
< 3,≥ 150,< 3,+++ (≥350),COc1ccc(-c2cccc(OC(F)(F)F)c2)c2c1CCCC2C(=O)NS(=O)(=O)c1cccc2ccccc12 (stereo not shown) [III-148],–,–,–,–
≥ 10,< 50,< 3,+ (<150),CCC1(C(=O)NS(=O)(=O)c2cccc(Cl)c2C(=O)OC)CCc2c(Cl)cccc21 (stereo not shown) [III-149],–,–,–,–
3 to 10,< 50,3 to 10,++ (≥150 and <350),O=C(NS(=O)(=O)c1cccc2ccccc12)C1CCc2c(Br)ccc(O)c21 (stereo not shown) [III-152],–,–,–,–
≥ 10,< 50,≥ 10,+ (<150),COc1ccc(N2CCOCC2)c2c1CCCC2C(=O)NS(=O)(=O)c1cccc2ccccc12 (stereo not shown) [III-153],–,–,–,–
< 3,≥ 150,< 3,+++ (≥350),COc1ccc(-c2ccc(C(F)(F)F)cc2)c2c1CCCC2C(=O)NS(=O)(=O)c1cccc2ccccc12 (stereo not shown) [III-154],–,–,–,–
3 to 10,50 to 150,< 3,++ (≥150 and <350),CCC1(C(=O)NS(=O)(=O)c2cccc(Cl)c2C)CCc2c(Cl)cccc21 (stereo not shown) [III-156],–,–,–,–
3 to 10,50 to 150,3 to 10,++ (≥150 and <350),COc1ccc(Br)c2c1C(C(=O)NS(=O)(=O)c1cccnc1OC)CC2 (stereo not shown) [III-158],–,–,–,–
3 to 10,≥ 150,3 to 10,+++ (≥350),COc1ccc(Br)c2c1C(C(=O)NS(=O)(=O)c1cccnc1N)CC2 (stereo not shown) [III-159],–,–,–,–
3 to 10,50 to 150,3 to 10,+++ (≥350),COc1ccc(Br)c2c1C(C(=O)NS(=O)(=O)c1cccc(N)n1)CC2 (stereo not shown) [III-160],–,–,–,–
3 to 10,< 50,3 to 10,++ (≥150 and <350),CCOc1ccc(S(=O)(=O)NC(=O)C2CCc3c(Br)ccc(OC)c32)c2ccccc12 (stereo not shown) [III-161],–,–,–,–
3 to 10,50 to 150,3 to 10,+++ (≥350),COc1ccc(Br)c2c1C(C(=O)NS(=O)(=O)c1ccc(OC)c3ccccc13)CC2 (stereo not shown) [III-162],–,–,–,–
≥ 10,< 50,3 to 10,++ (≥150 and <350),COc1ccc(Br)c2c1C(C(=O)NS(=O)(=O)c1cccn3cnnc13)CC2 (stereo not shown) [III-163],–,–,–,–
< 3,50 to 150,< 3,+++ (≥350),COc1ccc(-c2cncnc2)c2c1C(C(=O)NS(=O)(=O)c1cccc3ccccc13)CCC2 (stereo not shown) [III-164],–,–,–,–
3 to 10,50 to 150,< 3,++ (≥150 and <350),COc1ccc(-c2ccc(C3CC3)nc2)c2c1C(C(=O)NS(=O)(=O)c1cccc3ccccc13)CCC2 (stereo not shown) [III-165],–,–,–,–
< 3,50 to 150,< 3,++ (≥150 and <350),COc1ccc(-c2ccncc2)c2c1C(C(=O)NS(=O)(=O)c1cccc3ccccc13)CCC2 (stereo not shown) [III-166],–,–,–,–
3 to 10,< 50,< 3,++ (≥150 and <350),COc1ccc(-c2ccc(C)nc2)c2c1C(C(=O)NS(=O)(=O)c1cccc3ccccc13)CCC2 (stereo not shown) [III-167],–,–,–,–
3 to 10,50 to 150,3 to 10,+++ (≥350),COc1ccc(-c2cncnc2)c2c1C(C(=O)NS(=O)(=O)c1cccc3ncccc13)CC2 (stereo not shown) [III-168],–,–,–,–
3 to 10,≥ 150,< 3,+++ (≥350),COc1ccc(C2=CCOCC2)c2c1C(C(=O)NS(=O)(=O)c1cccc3ncccc13)CC2 (stereo not shown) [III-169],–,–,–,–
< 3,50 to 150,< 3,+++ (≥350),COc1ccc(-c2ccc(C)cc2)c2c1C(C(=O)NS(=O)(=O)c1cccc3ccccc13)CCC2 (stereo not shown) [III-170],–,–,–,–

EC50 (F508delCFTR [1]; CSE-HRP assay) [µM],Emax (F508delCFTR [1]) [%],EC50 (F508delCFTR [2]; [3]) [µM],Maximum % activity (with co-corrector) (F508delCFTR [2]; [4]),Molecule,Maximum % activity (without co-corrector) (F508delCFTR [1]),EC50 (F508delCFTR [1]) [µM],Maximum % activity (with co-corrector) (F508delCFTR [2]; [5]),EC50 (F508delCFTR [2]; with 2 μM co-corrector) [µM]
3 to 10,50 to 150,3 to 10,+++ (≥350),COc1ccc(-c2ccc(C(F)(F)F)nc2)c2c1C(C(=O)NS(=O)(=O)c1cccc3ccccc13)CCC2 (stereo not shown) [III-171],–,–,–,–
3 to 10,< 50,< 3,++ (≥150 and <350),CCC1(C(=O)NS(=O)(=O)c2cccc(N3CCOCC3)c2C)CCc2c(Cl)cccc21 (stereo not shown) [III-172],–,–,–,–
3 to 10,50 to 150,3 to 10,+++ (≥350),CCC1(C(=O)NS(=O)(=O)c2cccc(N(C)CCOC)c2C)CCc2c(Cl)cccc21 (stereo not shown) [III-173],–,–,–,–
≥ 10,< 50,≥ 10,+ (<150),COc1ccc(N2CCCC2)c2c1CCCC2C(=O)NS(=O)(=O)c1cccc2ccccc12 (stereo not shown) [III-174],–,–,–,–
≥ 10,< 50,≥ 10,+ (<150),COc1ccc2c(c1OC)CC2C(=O)NS(=O)(=O)c1ccccc1C (stereo not shown) [III-175],–,–,–,–
≥ 10,< 50,≥ 10,+ (<150),Cc1ccccc1S(=O)(=O)NC(=O)C1Cc2ccccc21 (stereo not shown) [III-176],–,–,–,–
≥ 10,< 50,3 to 10,++ (≥150 and <350),COc1ccc2c(c1OC)CC2C(=O)NS(=O)(=O)c1cccc2ccccc12 (stereo not shown) [III-177],–,–,–,–
3 to 10,< 50,3 to 10,++ (≥150 and <350),COc1ccc2c(n1)CCC2C(=O)NS(=O)(=O)c1cccc2ccccc12 (stereo not shown) [III-178],–,–,–,–
≥ 10,< 50,≥ 10,+ (<150),CCC1(C(=O)NS(=O)(=O)c2cccc(Cl)c2C(=O)O)CCc2c(Cl)cccc21 (stereo not shown) [III-179],–,–,–,–
≥ 10,< 50,3 to 10,++ (≥150 and <350),COc1ccc(Br)c2c1C(C(=O)NS(=O)(=O)c1cccc3c(C(=O)O)cccc13)CC2 (stereo not shown) [III-181],–,–,–,–
< 3,50 to 150,< 3,++ (≥150 and <350),COc1cccc2c1C(C(=O)NS(=O)(=O)c1cccc3ccccc13)CC2 (stereo not shown) [III-182],–,–,–,–
≥ 10,< 50,3 to 10,++ (≥150 and <350),COc1ccc(C(=O)O)c2c1C(C(=O)NS(=O)(=O)c1cccc3ccccc13)CC2 (stereo not shown) [III-183],–,–,–,–
–,50 to 150,–,++ (≥150 and <350),COC(=O)c1ccc(OC)c2c1CCC2C(=O)NS(=O)(=O)c1cccc2ccccc12 (stereo not shown) [III-184],–,–,–,–
3 to 10,< 50,3 to 10,++ (≥150 and <350),COc1ccc(CO)c2c1C(C(=O)NS(=O)(=O)c1cccc3ccccc13)CC2 (stereo not shown) [III-185],–,–,–,–
≥ 10,< 50,≥ 10,+ (<150),CNC(=O)c1ccc(OC)c2c1CCC2C(=O)NS(=O)(=O)c1cccc2ccccc12 (stereo not shown) [III-186],–,–,–,–
≥ 10,< 50,≥ 10,+ (<150),COc1ccc(C(=O)N(C)C)c2c1C(C(=O)NS(=O)(=O)c1cccc3ccccc13)CC2 (stereo not shown) [III-187],–,–,–,–
≥ 10,< 50,3 to 10,+ (<150),COc1ccc(CN2CCCC2)c2c1C(C(=O)NS(=O)(=O)c1cccc3ccccc13)CC2 (stereo not shown) [III-188],–,–,–,–
–,–,–,–,"(1R)-4-cyclobutyl-7-methoxy-N-(1,2,3,4-tetrahydroquinoline-8-sulfonyl)-2,3-dihydro-1H-indene-1-carboxamide [Example I-131]",+++ (≥150),< 3,+++ (≥350),< 3
–,–,–,–,"(1S)-7-chloro-1-methyl-N-(naphthalene-1-sulfonyl)-2,3-dihydro-1H-indene-1-carboxamide [Example I-26]",++ (≥50 and <150),< 3,+++ (≥350),< 3
